{"source": "the supplement of paper PMC10307832", "test_in_all_cases": "relative viability (nuclei count vs DMSO), 5 days (fraction); higher = more cells survive", "key": {"201T": {"test_system": "201T", "summary_of_the_method": "(§1)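 Five library-drug doses in √10 steps were combined with a fixed anchor-drug dose, or a single drug was given alone, by pin tool to lung cancer cell lines in 1536-well plates the day after seeding. Nuclei were stained and counted after 5 days. Relative viability is the nuclei count in treated wells over that in vehicle wells, taken as the median of duplicate plates.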"}, "BEN": {"test_system": "BEN", "summary_of_the_method": "as §1"}, "CAL-12T": {"test_system": "CAL-12T", "summary_of_the_method": "as §1"}, "HCC-78": {"test_system": "HCC-78", "summary_of_the_method": "as §1"}, "HOP-62": {"test_system": "HOP-62", "summary_of_the_method": "as §1"}, "LCLC-97TM1": {"test_system": "LCLC-97TM1", "summary_of_the_method": "as §1"}, "LOU-NH91": {"test_system": "LOU-NH91", "summary_of_the_method": "as §1"}, "NCI-H1355": {"test_system": "NCI-H1355", "summary_of_the_method": "as §1"}, "NCI-H1395": {"test_system": "NCI-H1395", "summary_of_the_method": "as §1"}, "NCI-H1563": {"test_system": "NCI-H1563", "summary_of_the_method": "as §1"}, "NCI-H1651": {"test_system": "NCI-H1651", "summary_of_the_method": "as §1"}, "NCI-H1793": {"test_system": "NCI-H1793", "summary_of_the_method": "as §1"}, "NCI-H1915": {"test_system": "NCI-H1915", "summary_of_the_method": "as §1"}, "NCI-H1944": {"test_system": "NCI-H1944", "summary_of_the_method": "as §1"}, "NCI-H2126": {"test_system": "NCI-H2126", "summary_of_the_method": "as §1"}, "NCI-H2347": {"test_system": "NCI-H2347", "summary_of_the_method": "as §1"}, "NCI-H3122": {"test_system": "NCI-H3122", "summary_of_the_method": "as §1"}, "NCI-H322M": {"test_system": "NCI-H322M", "summary_of_the_method": "as §1"}, "NCI-H441": {"test_system": "NCI-H441", "summary_of_the_method": "as §1"}, "NCI-H650": {"test_system": "NCI-H650", "summary_of_the_method": "as §1"}, "NCI-H838": {"test_system": "NCI-H838", "summary_of_the_method": "as §1"}, "SK-LU-1": {"test_system": "SK-LU-1", "summary_of_the_method": "as §1"}, "SW 1573": {"test_system": "SW 1573", "summary_of_the_method": "as §1"}}, "data": [{"molecule": "CN1CCN(CCOc2cc(OC3CCOCC3)c3c(Nc4c(Cl)ccc5c4OCO5)ncnc3c2)CC1", "note": "[Saracatinib] + Cc1nc(Nc2ncc(C(=O)Nc3c(C)cccc3Cl)s2)cc(N2CCN(CCO)CC2)n1 [Dasatinib] (partner 0.075 µM)", "values": [{"measurement": "relative viability", "setting": "201T; first compound 0.02 µM", "result": 0.602}, {"measurement": "relative viability", "setting": "201T; first compound 0.2 µM", "result": 0.567}, {"measurement": "relative viability", "setting": "201T; first compound 0.6325 µM", "result": 0.57}, {"measurement": "relative viability", "setting": "201T; first compound 2 µM", "result": 0.489}, {"measurement": "relative viability", "setting": "BEN; first compound 0.02 µM", "result": 0.329}, {"measurement": "relative viability", "setting": "BEN; first compound 0.6325 µM", "result": 0.373}, {"measurement": "relative viability", "setting": "BEN; first compound 2 µM", "result": 0.418}, {"measurement": "relative viability", "setting": "CAL-12T; first compound 0.02 µM", "result": 0.593}, {"measurement": "relative viability", "setting": "CAL-12T; first compound 0.2 µM", "result": 0.451}, {"measurement": "relative viability", "setting": "CAL-12T; first compound 0.6325 µM", "result": 0.47}, {"measurement": "relative viability", "setting": "CAL-12T; first compound 2 µM", "result": 0.294}, {"measurement": "relative viability", "setting": "HCC-78; first compound 0.02 µM", "result": 0.477}, {"measurement": "relative viability", "setting": "HCC-78; first compound 0.6325 µM", "result": 0.421}, {"measurement": "relative viability", "setting": "HCC-78; first compound 2 µM", "result": 0.352}, {"measurement": "relative viability", "setting": "HOP-62; first compound 0.02 µM", "result": 0.757}, {"measurement": "relative viability", "setting": "HOP-62; first compound 0.2 µM", "result": 0.663}, {"measurement": "relative viability", "setting": "HOP-62; first compound 0.6325 µM", "result": 0.766}, {"measurement": "relative viability", "setting": "HOP-62; first compound 2 µM", "result": 0.636}, {"measurement": "relative viability", "setting": "LCLC-97TM1; first compound 0.02 µM", "result": 0.636}, {"measurement": "relative viability", "setting": "LCLC-97TM1; first compound 0.2 µM", "result": 0.519}, {"measurement": "relative viability", "setting": "LCLC-97TM1; first compound 0.6325 µM", "result": 0.723}, {"measurement": "relative viability", "setting": "LCLC-97TM1; first compound 2 µM", "result": 0.33}, {"measurement": "relative viability", "setting": "LOU-NH91; first compound 0.02 µM", "result": 0.507}, {"measurement": "relative viability", "setting": "LOU-NH91; first compound 0.2 µM", "result": 0.429}, {"measurement": "relative viability", "setting": "LOU-NH91; first compound 0.6325 µM", "result": 0.418}, {"measurement": "relative viability", "setting": "LOU-NH91; first compound 2 µM", "result": 0.419}, {"measurement": "relative viability", "setting": "NCI-H1355; first compound 0.02 µM", "result": 0.716}, {"measurement": "relative viability", "setting": "NCI-H1355; first compound 0.2 µM", "result": 0.703}, {"measurement": "relative viability", "setting": "NCI-H1355; first compound 0.6325 µM", "result": 0.774}, {"measurement": "relative viability", "setting": "NCI-H1355; first compound 2 µM", "result": 0.731}, {"measurement": "relative viability", "setting": "NCI-H1395; first compound 0.02 µM", "result": 0.394}, {"measurement": "relative viability", "setting": "NCI-H1395; first compound 0.2 µM", "result": 0.418}, {"measurement": "relative viability", "setting": "NCI-H1395; first compound 0.6325 µM", "result": 0.411}, {"measurement": "relative viability", "setting": "NCI-H1395; first compound 2 µM", "result": 0.402}, {"measurement": "relative viability", "setting": "NCI-H1563; first compound 0.02 µM", "result": 0.463}, {"measurement": "relative viability", "setting": "NCI-H1563; first compound 0.2 µM", "result": 0.39}, {"measurement": "relative viability", "setting": "NCI-H1563; first compound 0.6325 µM", "result": 0.437}, {"measurement": "relative viability", "setting": "NCI-H1563; first compound 2 µM", "result": 0.397}, {"measurement": "relative viability", "setting": "NCI-H1651; first compound 0.02 µM", "result": 0.565}, {"measurement": "relative viability", "setting": "NCI-H1651; first compound 0.2 µM", "result": 0.37}, {"measurement": "relative viability", "setting": "NCI-H1651; first compound 0.6325 µM", "result": 0.439}, {"measurement": "relative viability", "setting": "NCI-H1651; first compound 2 µM", "result": 0.406}, {"measurement": "relative viability", "setting": "NCI-H1793; first compound 0.02 µM", "result": 0.439}, {"measurement": "relative viability", "setting": "NCI-H1793; first compound 0.6325 µM", "result": 0.426}, {"measurement": "relative viability", "setting": "NCI-H1793; first compound 2 µM", "result": 0.341}, {"measurement": "relative viability", "setting": "NCI-H1915; first compound 0.02 µM", "result": 0.308}, {"measurement": "relative viability", "setting": "NCI-H1915; first compound 0.2 µM", "result": 0.292}, {"measurement": "relative viability", "setting": "NCI-H1915; first compound 0.6325 µM", "result": 0.282}, {"measurement": "relative viability", "setting": "NCI-H1915; first compound 2 µM", "result": 0.322}, {"measurement": "relative viability", "setting": "NCI-H1944; first compound 0.02 µM", "result": 0.219}, {"measurement": "relative viability", "setting": "NCI-H1944; first compound 0.6325 µM", "result": 0.182}, {"measurement": "relative viability", "setting": "NCI-H1944; first compound 2 µM", "result": 0.181}, {"measurement": "relative viability", "setting": "NCI-H2126; first compound 0.02 µM", "result": 0.569}, {"measurement": "relative viability", "setting": "NCI-H2126; first compound 0.2 µM", "result": 0.511}, {"measurement": "relative viability", "setting": "NCI-H2126; first compound 0.6325 µM", "result": 0.532}, {"measurement": "relative viability", "setting": "NCI-H2126; first compound 2 µM", "result": 0.398}, {"measurement": "relative viability", "setting": "NCI-H2347; first compound 0.02 µM", "result": 0.305}, {"measurement": "relative viability", "setting": "NCI-H2347; first compound 0.2 µM", "result": 0.293}, {"measurement": "relative viability", "setting": "NCI-H2347; first compound 0.6325 µM", "result": 0.32}, {"measurement": "relative viability", "setting": "NCI-H2347; first compound 2 µM", "result": 0.346}, {"measurement": "relative viability", "setting": "NCI-H3122; first compound 0.02 µM", "result": 0.879}, {"measurement": "relative viability", "setting": "NCI-H3122; first compound 0.2 µM", "result": 0.666}, {"measurement": "relative viability", "setting": "NCI-H3122; first compound 0.6325 µM", "result": 0.562}, {"measurement": "relative viability", "setting": "NCI-H3122; first compound 2 µM", "result": 0.655}, {"measurement": "relative viability", "setting": "NCI-H322M; first compound 0.02 µM", "result": 0.245}, {"measurement": "relative viability", "setting": "NCI-H322M; first compound 0.2 µM", "result": 0.196}, {"measurement": "relative viability", "setting": "NCI-H322M; first compound 0.6325 µM", "result": 0.211}, {"measurement": "relative viability", "setting": "NCI-H322M; first compound 2 µM", "result": 0.215}, {"measurement": "relative viability", "setting": "NCI-H441; first compound 0.02 µM", "result": 0.615}, {"measurement": "relative viability", "setting": "NCI-H441; first compound 0.2 µM", "result": 0.442}, {"measurement": "relative viability", "setting": "NCI-H441; first compound 0.6325 µM", "result": 0.715}, {"measurement": "relative viability", "setting": "NCI-H441; first compound 2 µM", "result": 0.549}, {"measurement": "relative viability", "setting": "NCI-H650; first compound 0.02 µM", "result": 0.491}, {"measurement": "relative viability", "setting": "NCI-H650; first compound 0.2 µM", "result": 0.416}, {"measurement": "relative viability", "setting": "NCI-H650; first compound 0.6325 µM", "result": 0.477}, {"measurement": "relative viability", "setting": "NCI-H650; first compound 2 µM", "result": 0.429}, {"measurement": "relative viability", "setting": "NCI-H838; first compound 0.02 µM", "result": 0.274}, {"measurement": "relative viability", "setting": "NCI-H838; first compound 0.2 µM", "result": 0.277}, {"measurement": "relative viability", "setting": "NCI-H838; first compound 0.6325 µM", "result": 0.277}, {"measurement": "relative viability", "setting": "NCI-H838; first compound 2 µM", "result": 0.281}, {"measurement": "relative viability", "setting": "SK-LU-1; first compound 0.02 µM", "result": 0.148}, {"measurement": "relative viability", "setting": "SK-LU-1; first compound 0.2 µM", "result": 0.14}, {"measurement": "relative viability", "setting": "SK-LU-1; first compound 0.6325 µM", "result": 0.138}, {"measurement": "relative viability", "setting": "SK-LU-1; first compound 2 µM", "result": 0.146}, {"measurement": "relative viability", "setting": "SW 1573; first compound 0.02 µM", "result": 0.463}, {"measurement": "relative viability", "setting": "SW 1573; first compound 0.2 µM", "result": 0.454}, {"measurement": "relative viability", "setting": "SW 1573; first compound 0.6325 µM", "result": 0.489}, {"measurement": "relative viability", "setting": "SW 1573; first compound 2 µM", "result": 0.336}]}]}
